Assay results published in ChEMBL document CHEMBL4033762, “Development of Quinazoline/Pyrimidine-2,4(1H,3H)-diones as Agonists of Cannabinoid Receptor Type 2” (ACS Med Chem Lett, 2017).

Columns and labels:
[1] = Ratio of EC50 for agonist activity at CB1 receptor (unknown origin) expressed in CHO cells to EC50 for agonist activity at CB2 receptor (unknown origin) expressed in CHO cells; design: species or system Homo sapiens
Cannabinoid receptor 2 [2] = molecular target: T1, Cannabinoid receptor 2 (Homo sapiens, UniProt P34972); experiment: Agonist activity at CB2 receptor (unknown origin) expressed in CHO cells co-expressing G-alpha16 incubated for 24 hrs by fluo-4 AM dye based whole-cell calcium mobilization assay relative to CP55940; assay type: functional
Cannabinoid receptor 2 [3] = molecular target: T1, Cannabinoid receptor 2; experiment: Agonist activity at CB2 receptor (unknown origin) expressed in CHO cells co-expressing G-alpha16 incubated for 24 hrs by fluo-4 AM dye based whole-cell calcium mobilization assay; assay type: functional
Cannabinoid receptor 1 = Cannabinoid receptor 1 (Homo sapiens, UniProt P21554); experiment: Agonist activity at CB1 receptor (unknown origin) expressed in CHO cells co-expressing G-alpha16 incubated for 24 hrs by fluo-4 AM dye based whole-cell calcium mobilization assay
[4] = Lipophilicity, log P of the compound incubated at 37 degC for 20 hrs by HPLC based shake flask method; assay type: physicochemical

T1 sequence (P34972 whole entry): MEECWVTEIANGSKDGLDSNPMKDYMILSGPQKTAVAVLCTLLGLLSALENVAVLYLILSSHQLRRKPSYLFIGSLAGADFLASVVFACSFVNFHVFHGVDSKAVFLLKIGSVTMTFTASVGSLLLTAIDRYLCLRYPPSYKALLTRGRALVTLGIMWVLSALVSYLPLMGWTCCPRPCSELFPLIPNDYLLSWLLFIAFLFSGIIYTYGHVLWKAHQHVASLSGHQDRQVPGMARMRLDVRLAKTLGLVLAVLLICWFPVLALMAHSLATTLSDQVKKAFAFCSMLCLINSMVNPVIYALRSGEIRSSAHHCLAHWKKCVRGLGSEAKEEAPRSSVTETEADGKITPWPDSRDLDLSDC
Cannabinoid receptor 1, sequence (P21554 whole entry): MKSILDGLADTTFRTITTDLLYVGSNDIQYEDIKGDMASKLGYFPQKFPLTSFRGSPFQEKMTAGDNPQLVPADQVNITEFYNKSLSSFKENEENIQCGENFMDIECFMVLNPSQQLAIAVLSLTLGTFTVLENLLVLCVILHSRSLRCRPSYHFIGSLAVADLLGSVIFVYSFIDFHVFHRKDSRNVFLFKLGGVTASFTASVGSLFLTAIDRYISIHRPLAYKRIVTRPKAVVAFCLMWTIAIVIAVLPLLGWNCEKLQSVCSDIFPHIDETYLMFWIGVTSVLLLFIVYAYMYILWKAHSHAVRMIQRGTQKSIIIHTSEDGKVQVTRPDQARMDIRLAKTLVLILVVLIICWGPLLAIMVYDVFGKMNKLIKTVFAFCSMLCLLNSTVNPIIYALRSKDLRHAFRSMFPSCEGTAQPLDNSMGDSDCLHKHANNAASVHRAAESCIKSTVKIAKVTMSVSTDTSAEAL

Compound | Ratio EC50 [1] | Emax (Cannabinoid receptor 2 [2]) | EC50 (Cannabinoid receptor 2 [3]) | EC50 (Cannabinoid receptor 1) | logP at 20 h [4]
C=CCCn1c(=O)n(CC(=O)NC(C)(C)C)c(=O)c2c(C)cccc21 | >214 | 103% | 46.8 nM | > 10000 nM | 
CCCCCn1c(=O)n(CC(=O)NCCCC)c(=O)c2c(OC)cccc21 |  |  | > 10000 nM | > 10000 nM | 
CCCCCn1c(=O)n(CC(=O)NC(C)(C)C)c(=O)c2cccc(C)c21 | >361 | 99% | 27.7 nM | > 10000 nM | 
CCCCCn1c(=O)n(CC(=O)NC(C)C)c(=O)c2ccccc21 | >47 | 65% | 214 nM | > 10000 nM | 
CCCCCn1c(C)cc(=O)n(CC(=O)NCCCC)c1=O |  |  | > 10000 nM | > 10000 nM | 
CCCCCn1c(C)cc(=O)n(CC(=O)NC2CCCCC2)c1=O |  |  | > 10000 nM | > 10000 nM | 
CCCCCn1c(=O)n(CC(=O)NC2CCCCC2)c(=O)c2c(Cl)cccc21 |  |  | > 10000 nM | > 10000 nM | 
CCCCN1C(=O)/C(=C/NC2CCCCC2)C(=O)c2cccc(C)c21 |  |  |  |  | 4.35
CCCCCn1c(C)c(-c2cccc(C)c2)c(=O)n(CC(=O)NC(C)(C)C)c1=O |  |  | > 10000 nM | > 10000 nM | 
CCCCCn1c(=O)n(CC(=O)NCCCC)c(=O)c2c(Cl)cccc21 | >68 | 30% | 147 nM | > 10000 nM | 
CCCCCn1c(=O)n(CC(=O)NC(C)(C)C)c(=O)c2cccc(OC)c21 |  |  | > 10000 nM | > 10000 nM | 
CCCCCn1c(=O)n(CC(=O)NC(C)(C)C)c(=O)c2cccc(Cl)c21 | >190 | 118% | 52.7 nM | > 10000 nM | 
CCCCCn1c(=O)n(CC(=O)NC2CC2)c(=O)c2ccccc21 | >13 | 58% | 743 nM | > 10000 nM | 
CCCCCn1c(C)c(I)c(=O)n(CC(=O)NC(C)(C)C)c1=O | >56 | 78% | 178 nM | > 10000 nM | 
CCCCCn1c(C)c(-c2ccccc2)c(=O)n(CC(=O)NC(C)(C)C)c1=O |  |  | > 10000 nM | > 10000 nM | 
CCCCCn1c(C)c(Cl)c(=O)n(CC(=O)NC(C)(C)C)c1=O | >44 | 65% | 227 nM | > 10000 nM | 
CCCCCn1c(=O)n(CC(=O)NCCCC)c(=O)c2ccccc21 | >127 | 78% | 78.6 nM | > 10000 nM | 
CCCCCn1c(=O)n(CC(=O)NC(C)(C)C)c(=O)c2c(OC)cccc21 | >8 | 88% | 1250 nM | > 10000 nM | 
CCCCCn1c(=O)n(CC(=O)NC(C)(C)C)c(=O)c2c(C)cccc21 | >715 | 77% | 14 nM | > 10000 nM | 2.56
CCCCCn1c(C)cc(=O)n(CC(=O)NC(C)(C)C)c1=O | >13 | 72% | 722 nM | > 10000 nM | 

Compound | Ratio EC50 [1] | Emax (Cannabinoid receptor 2 [2]) | EC50 (Cannabinoid receptor 2 [3]) | EC50 (Cannabinoid receptor 1) | logP at 20 h [4]
CCCCCCn1c(C)cc(=O)n(CC(=O)NC(C)(C)C)c1=O | >13 | 65% | 767 nM | > 10000 nM | 
C=CCCn1c(=O)n(CC(=O)NC(C)(C)C)c(=O)c2cccc(C)c21 | >100 | 90% | 99.6 nM | > 10000 nM | 
CCCCn1c(=O)n(CC(=O)NC(C)(C)C)c(=O)c2ccccc21 | >89 | 101% | 112 nM | > 10000 nM | 
CCCCn1c(=O)n(CC(=O)NC(C)(C)C)c(=O)c2c(C)cccc21 | >425 | 98% | 23.5 nM | > 10000 nM | 
CCCCCn1c(=O)n(CC(=O)NC2CCCCC2)c(=O)c2c(OC)cccc21 |  |  | > 10000 nM | > 10000 nM | 
O=C(NCC1CCOCC1)c1cnc(Nc2ccc(Cl)cc2Cl)nc1C(F)(F)F [GW842166X] | >29 | 97% | 343 nM | > 10000 nM | 4.27
CCCn1c(=O)n(CC(=O)NC(C)(C)C)c(=O)c2ccccc21 | >7 | 75% | 1420 nM | > 10000 nM | 
CCCCCn1c(=O)n(CC(=O)NC2CCCCC2)c(=O)c2ccccc21 |  |  | > 10000 nM | > 10000 nM | 
CCCCCn1c(=O)n(CC(=O)NCC(C)C)c(=O)c2ccccc21 | >27 | 81% | 370 nM | > 10000 nM | 
CCCCCn1c(C)c(C2CC2)c(=O)n(CC(=O)NC(C)(C)C)c1=O | >37 | 71% | 270 nM | > 10000 nM | 
CCCCn1c(=O)n(CC(=O)NC(C)(C)C)c(=O)c2cccc(C)c21 | >262 | 102% | 38.2 nM | > 10000 nM | 
CCCCCn1c(=O)n(CC(=O)NC2CCCCC2)c(=O)c2c(C)cccc21 | >25 | 56% | 395 nM | > 10000 nM | 
CCCCCn1c(C)c(Br)c(=O)n(CC(=O)NC(C)(C)C)c1=O | >205 | 74% | 48.7 nM | > 10000 nM | 2.24
CCCn1c(=O)n(CC(=O)NC(C)(C)C)c(=O)c2cccc(C)c21 | >25 | 121% | 407 nM | > 10000 nM | 
CCCCCn1c(=O)n(CC(=O)NCCCC)c(=O)c2c(C)cccc21 | >21 | 83% | 468 nM | > 10000 nM | 
CCCCn1c(C)cc(=O)n(CC(=O)NC(C)(C)C)c1=O |  |  | > 10000 nM | > 10000 nM | 
CCCn1c(=O)n(CC(=O)NC(C)(C)C)c(=O)c2c(C)cccc21 | >88 | 113% | 113 nM | > 10000 nM | 
CCCCCn1c(=O)n(CC(=O)NC(C)(C)C)c(=O)c2ccccc21 | >116 | 80% | 86.5 nM | > 10000 nM | 
Cc1cccc2c(=O)n(CC(=O)NC(C)(C)C)c(=O)n(CC3CC3)c12 | >32 | 110% | 309 nM | > 10000 nM | 
Cc1cccc2c1c(=O)n(CC(=O)NC(C)(C)C)c(=O)n2CC1CC1 | >146 | 106% | 68.3 nM | > 10000 nM | 
